These results are taken from ChEMBL document CHEMBL4619732, “Two new secondary metabolites, saccharochlorines A and B, from a marine bacterium Saccharomonospora sp. KCTC-19160” (Bioorg Med Chem Lett, 2020).

Activity calls are given as the source filed them. The rule behind the calls is not given here.

Test [1] concerns H4. The test can be described thus: Induction of amyloid beta (1 to 40) secretion in human H4 cells overexpressing APP incubated for overnight by ELISA. It is filed as functional, cell-based. (In an ELISA, binding on a coated surface is turned into a signal by an enzyme label.)
The test system of test [2] is H4. The test can be described thus: Induction of amyloid beta (1 to 42) secretion in human H4 cells overexpressing APP incubated for overnight by ELISA. It is filed as functional, cell-based.
In test [3] the test system is SH-SY5Y. Nature of the test: Induction of amyloid beta (1 to 40) secretion in human SH-SY5Y cells incubated for overnight by ELISA. It is filed as functional, cell-based.
For test [4], the species on record is Homo sapiens. Nature of the test: Inhibition of monoamine oxidase (unknown origin).
Test [5] relates to SH-SY5Y. The test can be described thus: Induction of amyloid beta (1 to 42) secretion in human SH-SY5Y cells incubated for overnight by ELISA. It is filed as functional, cell-based.

Take `CO/C(=C\c1ccc(O)c(Cl)c1)C(=O)O`: the Activity entry in test [1] and in test [2] was “Dose-dependent effect” each time. The result in test [3] and in test [5] was inactive. In addition, the inhibition entry in test [4] is “inactive”.
`CO/C(=C\c1cc(Cl)c(O)c(Cl)c1)C(=O)O`: the Activity entry in test [1] and in test [2] was “Dose-dependent effect” each time. Also, the result in test [3] and in test [5] was inactive. In test [4], the inhibition result was “inactive”.
